Key:
Type in all cases: cell-based
[1] = tested on: ESBL-producing strain of Escherichia coli (EcR3); assay: Chessboard technique: MICs alone and synergism of Cx1 combinations; conditions: antibiotic used alone; second figure of the cell; n = 4
Description: (§1) Three reference strains were used, corresponding to those studied for the MICs and MBCs (Minimum Bactericidal Concentration): Escherichia coli ATCC 25922, Staphylococcus aureus ATCC 29213, Pseudomonas aeruginosa ATCC 27853. For each of these strains 3 corresponding clinical isolates were chosen, having various antibiotic-resistance profiles, routinely used in standard fashion: • EcR1, EcR2, EcR3; • SaR1, SaR3, SaR4; • PaR2, PaR3, PaR5.
(§2) 1.3. Procedure: Chessboard Technique
(§3) The bacterial suspension is transferred to a 15 mL Falcon tube, centrifuged for 10 min at 4500 g, then the pellet is re-suspended in 1 mL of sterile distilled water. Suitable dilutions are then prepared in order to obtain a bacterial inoculum between 5·10^5 and 5·10^6 CFU/mL.
(§4) The MICs of the antibiotics were previously determined for each strain, by the method of microdilution in a liquid medium (CLSI (Clinical and Laboratory Standards Institute), 2003).
(§5) The same procedure is followed for the Cx1. […] Thus 64 ATB/Cx1 combinations are obtained.
(§6) The final volume contained in each of the wells must be 100 μL. Two controls must be present on each plate: • column 1 and 12: medium control • column 2 and 11: medium+bacteria control
(§7) Cx1: […] in the wells of […], starting with the lowest concentration.
(§8) ATB: 25 μL in the wells of rows H to A (columns 3 to 11), starting with the lowest concentration.
(§9) 50 μL in each of the wells of columns 2 to 11.
(§10) D2: Reading the Turbidity at 540 Nm.
(§11) The FIC (Fractional Inhibitory Concentration Index) value is determined by the following formula:
(§12) [formula] MICA in combination MICA alone MICB in combination MICB alone
(§13) When FIC≦0.5, there is a synergistic effect between antibiotic A and antibiotic B.
(§14) When 0.5<FIC≦1, there is an additive effect between antibiotic A and antibiotic B.
(§15) When 1<FIC≦4, there is an indifferent effect between antibiotic A and antibiotic B.
(§16) When FIC>4, there is an antagonistic effect between antibiotic A and antibiotic B.
(§17) For each strain and each antibiotic/Cx1 combination, the experiments were repeated a minimum of 3 times.

[2] = tested on: cephalosporinase-hyperproducing strain of Escherichia coli (EcR2); assay: as above; conditions: antibiotic used alone; second figure of the cell; n = 4
Description: as §1, §2, §3, §4, §5, §6, §7, §8, §9, §10, §11, §12, §13, §14, §15, §16, §17

[3] = tested on: EcR1: Penicillinase-Producing Escherichia coli without Associated Resistance; assay: Antibiogram, MIC by the VITEK 2 system; conditions: Table A1, category from MIC
Method: (§18) 5. Identification and Antibiogram 5.1 EcR1: Penicillinase-Producing Escherichia coli without Associated Resistance
(§19) The bacterial and antibiogram identification is carried out by the VITEK 2 system (bioMérieux) and by the disk diffusion technique.

[4] = tested on: EcR1: Penicillinase-Producing Escherichia coli without Associated Resistance; assay: Antibiogram by the disk diffusion technique; conditions: Table A1, category from diameter vs Dmin Dmax
Method: as §18, §19

[5] = tested on: EcR2: Cephalosporinase-Hyperproducing Escherichia coli; assay: Antibiogram by the disk diffusion technique; conditions: Table B2; strain EcR2; diameters
Method: 5.2 EcR2: Cephalosporinase-Hyperproducing Escherichia coli Having an Associated Resistance to the Aminoglycosides, Quinolones and the Trimethoprim-Sulphamethoxazole Combination
The bacterial and antibiogram identification is carried out by the VITEK 1 system (bioMérieux) and by the disk diffusion technique

[6] = tested on: Pseudomonas aeruginosa strain ATCC 27853 (wild type); assay: Chessboard technique: MICs alone and synergism of Cx1 combinations; conditions: antibiotic used alone; second figure of the cell; n = 4
Description: as §1, §2, §3, §4, §5, §6, §7, §8, §9, §10, §11, §12, §13, §14, §15, §16, §17

[7] = tested on: Pseudomonas aeruginosa strain having a resistance to β-lactams (including the carbapenems), aminoglycosides, the trimethoprim-sulphamethoxazole combination and …; assay: as above; conditions: antibiotic used alone; second figure of the cell; n = 4
Description: as §1, §2, §3, §4, §5, §6, §7, §8, §9, §10, §11, §12, §13, §14, §15, §16, §17

[8] = tested on: mucoid strain of Pseudomonas aeruginosa having a resistance to rifampicin and the trimethoprim-sulphamethoxazole combination (PaR5); assay: as above; conditions: antibiotic used alone; second figure of the cell; n = 4
Description: as §1, §2, §3, §4, §5, §6, §7, §8, §9, §10, §11, §12, §13, §14, §15, §16, §17

[9] = tested on: Pseudomonas aeruginosa strain having a resistance to β-lactams, the trimethoprim-sulphamethoxazole combination and fosfomycin (PaR2); conditions: antibiotic used alone; second figure of the cell; n = 4
Description: as §1, §2, §3, §4, §5, §6, §7, §8, §9, §10, §11, §12, §13, §14, §15, §16, §17

[10] = tested on: Escherichia coli, Staphylococcus aureus and Pseudomonas aeruginosa strains; assay: Chessboard technique, summary over all strains and combinations tested
Description: as §1, §2
The FIC (Fractional Inhibitory Concentration Index) value is determined by the following formula: […]
as §17

[11] = tested on: SaR4: Meticillin-Resistant Staphylococcus aureus; assay: Antibiogram by the disk diffusion technique; conditions: Table F2; strain SaR4; diameters
Method: 5.6 SaR4: Meticillin-Resistant Staphylococcus aureus Having an Associated Resistance to the Aminoglycosides, Fluoroquinolones, Macrolides-Lincosamines-Synergistins and Ofloxacin The bacterial and antibiogram identification is carried out by the VITEK 2 system (bioMérieux) and by the disk diffusion technique
5.7 PaR2: Pseudomonas aeruginosa Having an Associated Resistance to the β-Lactams, the Trimethoprim-Sulphamethoxazole Combination and Fosfomycin The bacterial and antibiogram identification is carried out by the VITEK 2 system (bioMérieux) and by the disk diffusion technique

[12] = tested on: PaR5: Pseudomonas aeruginosa; assay: Antibiogram by the disk diffusion technique; set-up: unit not given here; conditions: Table I1; strain PaR5

| SMILES | Initial MICs (antibiotic) [1] | Initial MICs (antibiotic) [2] | Results (MIC) [3] | Results (diameter) [4] | diameter in mm [5] | further results |
| --- | --- | --- | --- | --- | --- | --- |
| CO/N=C(\C(=O)N[C@@H]1C(=O)N2C(C(=O)O)=C(COC(C)=O)CS[C@H]12)c1csc(N)n1 [Cefotaxime] | 128 mg/L | 4 mg/L | Susceptible | Susceptible | 24 mm |  |
| CO[C@@]1(NC(=O)Cc2cccs2)C(=O)N2C(C(=O)O)=C(COC(N)=O)CS[C@@H]21 [Cefoxitin] |  |  | Susceptible | Susceptible | 11 mm |  |
| CC(C)(O/N=C(\C(=O)N[C@@H]1C(=O)N2C(C(=O)[O-])=C(C[n+]3ccccc3)CS[C@H]12)c1csc(N)n1)C(=O)O [Ceftazidime] | 1 mg/L | 8 mg/L | Susceptible |  | 20 mm | MIC (antibiotic) [6]: 4 mg/L; MIC (antibiotic) [7]: 16 mg/L; MIC (antibiotic) [8]: 8 mg/L; MIC (antibiotic) [9]: 8 mg/L; nature of the interaction between Cx1 and the antibiotic [10]: synergism |
| NC[C@H]1O[C@H](O[C@H]2[C@H](O)[C@@H](O[C@H]3O[C@H](CO)[C@@H](O)[C@H](N)[C@H]3O)[C@H](N)C[C@@H]2N)[C@H](O)[C@@H](O)[C@@H]1O [Kanamycin] |  |  |  |  |  | diameter in mm [11]: 7 mm |
| CCn1cc(C(=O)O)c(=O)c2cc(F)c(N3CCNCC3)cc21 [Norofloxacin] |  |  |  |  |  | Diameter [12]: 17 |
